Tested on: Unknown protein yeast genes
Test: DNA chip mRNA expression in yeast, unknown protein yeast genes (Table 1)
Format: cell-based, Saccharomyces cerevisiae S288C
Method in brief: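 S. cerevisiae S288C grown at 25° C. in YPD to log phase, then exposed 2 h to a toxicant at a growth-inhibiting, non-lethal concentration; untreated cells as control. Poly(A) mRNA reverse-transcribed with Cy3-dUTP or Cy5-dUTP, hybridized >12 h at 65° C. to whole-genome yeast DNA chip; value = fluorescence ratio treated/untreated.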

CCCCCCCCCCCCOS(=O)(=O)[O-].[Na+] [(18), sodium lauryl sulfate]
The level of expressed mRNA in the presence of chemical substance/The level of expressed mRNA in the absence of chemical substance (yeast gene YAL053W, incubated two hours with chemical substance): 1.6
The level of expressed mRNA in the presence of chemical substance/The level of expressed mRNA in the absence of chemical substance (yeast gene YBL048W): 1.0
The level of expressed mRNA in the presence of chemical substance/The level of expressed mRNA in the absence of chemical substance (yeast gene YBL107C): 1.4
The level of expressed mRNA in the presence of chemical substance/The level of expressed mRNA in the absence of chemical substance (yeast gene YDL072C, incubated two hours with chemical substance): 2.8
The level of expressed mRNA in the presence of chemical substance/The level of expressed mRNA in the absence of chemical substance (yeast gene YDL110C): 4.4
The level of expressed mRNA in the presence of chemical substance/The level of expressed mRNA in the absence of chemical substance (yeast gene YDL204W, incubated two hours with chemical substance): 2.7
The level of expressed mRNA in the presence of chemical substance/The level of expressed mRNA in the absence of chemical substance (yeast gene YDL222C, incubated two hours with chemical substance): 1.3
The level of expressed mRNA in the presence of chemical substance/The level of expressed mRNA in the absence of chemical substance (yeast gene YDR330W, incubated two hours with chemical substance): 1.3
The level of expressed mRNA in the presence of chemical substance/The level of expressed mRNA in the absence of chemical substance (yeast gene YDR391C, incubated two hours with chemical substance): 2.4
The level of expressed mRNA in the presence of chemical substance/The level of expressed mRNA in the absence of chemical substance (yeast gene YDR411C, incubated two hours with chemical substance): 1.3
The level of expressed mRNA in the presence of chemical substance/The level of expressed mRNA in the absence of chemical substance (yeast gene YDR511W, incubated two hours with chemical substance): 1.5
The level of expressed mRNA in the presence of chemical substance/The level of expressed mRNA in the absence of chemical substance (yeast gene YDR533C): 2.7
The level of expressed mRNA in the presence of chemical substance/The level of expressed mRNA in the absence of chemical substance (yeast gene YDR545W, incubated two hours with chemical substance): 0.9
The level of expressed mRNA in the presence of chemical substance/The level of expressed mRNA in the absence of chemical substance (yeast gene YEL001C, incubated two hours with chemical substance): 1.3
The level of expressed mRNA in the presence of chemical substance/The level of expressed mRNA in the absence of chemical substance (yeast gene YER004W, incubated two hours with chemical substance): 1.2
The level of expressed mRNA in the presence of chemical substance/The level of expressed mRNA in the absence of chemical substance (yeast gene YER035W, incubated two hours with chemical substance): 2.1
The level of expressed mRNA in the presence of chemical substance/The level of expressed mRNA in the absence of chemical substance (yeast gene YER079W, incubated two hours with chemical substance): 1.6
The level of expressed mRNA in the presence of chemical substance/The level of expressed mRNA in the absence of chemical substance (yeast gene YER106W, incubated two hours with chemical substance): 0.8
The level of expressed mRNA in the presence of chemical substance/The level of expressed mRNA in the absence of chemical substance (yeast gene YER158C, incubated two hours with chemical substance): 1.2
The level of expressed mRNA in the presence of chemical substance/The level of expressed mRNA in the absence of chemical substance (yeast gene YER163C, incubated two hours with chemical substance): 1.2
The level of expressed mRNA in the presence of chemical substance/The level of expressed mRNA in the absence of chemical substance (yeast gene YER175C, incubated two hours with chemical substance): 1.2
The level of expressed mRNA in the presence of chemical substance/The level of expressed mRNA in the absence of chemical substance (yeast gene YFL006W, incubated two hours with chemical substance): 0.8
The level of expressed mRNA in the presence of chemical substance/The level of expressed mRNA in the absence of chemical substance (yeast gene YFL010C, incubated two hours with chemical substance): 1.6
The level of expressed mRNA in the presence of chemical substance/The level of expressed mRNA in the absence of chemical substance (yeast gene YFL024C): 0.8
The level of expressed mRNA in the presence of chemical substance/The level of expressed mRNA in the absence of chemical substance (yeast gene YFL032W, incubated two hours with chemical substance): 0.8
The level of expressed mRNA in the presence of chemical substance/The level of expressed mRNA in the absence of chemical substance (yeast gene YGL037C, incubated two hours with chemical substance): 2.6
The level of expressed mRNA in the presence of chemical substance/The level of expressed mRNA in the absence of chemical substance (yeast gene YGL047W, incubated two hours with chemical substance): 1.2
The level of expressed mRNA in the presence of chemical substance/The level of expressed mRNA in the absence of chemical substance (yeast gene YGL053W, incubated two hours with chemical substance): 3.7
The level of expressed mRNA in the presence of chemical substance/The level of expressed mRNA in the absence of chemical substance (yeast gene YGL121C): 3.5
The level of expressed mRNA in the presence of chemical substance/The level of expressed mRNA in the absence of chemical substance (yeast gene YGL199C, incubated two hours with chemical substance): 1.0
The level of expressed mRNA in the presence of chemical substance/The level of expressed mRNA in the absence of chemical substance (yeast gene YGR101W, incubated two hours with chemical substance): 1.1
The level of expressed mRNA in the presence of chemical substance/The level of expressed mRNA in the absence of chemical substance (yeast gene YGR110W): 2.1
The level of expressed mRNA in the presence of chemical substance/The level of expressed mRNA in the absence of chemical substance (yeast gene YGR130C, incubated two hours with chemical substance): 1.6
The level of expressed mRNA in the presence of chemical substance/The level of expressed mRNA in the absence of chemical substance (yeast gene YGR154C, incubated two hours with chemical substance): 1.2
The level of expressed mRNA in the presence of chemical substance/The level of expressed mRNA in the absence of chemical substance (yeast gene YGR221C, incubated two hours with chemical substance): 1.3
The level of expressed mRNA in the presence of chemical substance/The level of expressed mRNA in the absence of chemical substance (yeast gene YGR243W): 4.4
The level of expressed mRNA in the presence of chemical substance/The level of expressed mRNA in the absence of chemical substance (yeast gene YHR054C): 3.4
The level of expressed mRNA in the presence of chemical substance/The level of expressed mRNA in the absence of chemical substance (yeast gene YHR138C, incubated two hours with chemical substance): 7.1
The level of expressed mRNA in the presence of chemical substance/The level of expressed mRNA in the absence of chemical substance (yeast gene YHR199C, incubated two hours with chemical substance): 0.9
The level of expressed mRNA in the presence of chemical substance/The level of expressed mRNA in the absence of chemical substance (yeast gene YHR209W): 2.6
The level of expressed mRNA in the presence of chemical substance/The level of expressed mRNA in the absence of chemical substance (yeast gene YIL023C, incubated two hours with chemical substance): 1.0
The level of expressed mRNA in the presence of chemical substance/The level of expressed mRNA in the absence of chemical substance (yeast gene YIL041W, incubated two hours with chemical substance): 1.1
The level of expressed mRNA in the presence of chemical substance/The level of expressed mRNA in the absence of chemical substance (yeast gene YIL087C, incubated two hours with chemical substance): 1.6
The level of expressed mRNA in the presence of chemical substance/The level of expressed mRNA in the absence of chemical substance (yeast gene YJL057C, incubated two hours with chemical substance): 1.5
The level of expressed mRNA in the presence of chemical substance/The level of expressed mRNA in the absence of chemical substance (yeast gene YJL066C, incubated two hours with chemical substance): 1.5
The level of expressed mRNA in the presence of chemical substance/The level of expressed mRNA in the absence of chemical substance (yeast gene YJL082W, incubated two hours with chemical substance): 0.3
The level of expressed mRNA in the presence of chemical substance/The level of expressed mRNA in the absence of chemical substance (yeast gene YJL151C, incubated two hours with chemical substance): 2.4
The level of expressed mRNA in the presence of chemical substance/The level of expressed mRNA in the absence of chemical substance (yeast gene YJL152W, incubated two hours with chemical substance): 1.7
The level of expressed mRNA in the presence of chemical substance/The level of expressed mRNA in the absence of chemical substance (yeast gene YJL161W, incubated two hours with chemical substance): 2.1
The level of expressed mRNA in the presence of chemical substance/The level of expressed mRNA in the absence of chemical substance (yeast gene YJL171C, incubated two hours with chemical substance): 2.9
The level of expressed mRNA in the presence of chemical substance/The level of expressed mRNA in the absence of chemical substance (yeast gene YJR008W, incubated two hours with chemical substance): 2.7
The level of expressed mRNA in the presence of chemical substance/The level of expressed mRNA in the absence of chemical substance (yeast gene YJR054W, incubated two hours with chemical substance): 0.9
The level of expressed mRNA in the presence of chemical substance/The level of expressed mRNA in the absence of chemical substance (yeast gene YKL071W): 0.9
The level of expressed mRNA in the presence of chemical substance/The level of expressed mRNA in the absence of chemical substance (yeast gene YKL086W, incubated two hours with chemical substance): 1.0

Reference: patent US8192962B2, “Processes for detecting toxic substances” (Daikin Industries, Ltd., priority 2001, dated 2012)
